Measurements published in patent US20250249012A1, “COMPOSITIONS AND METHODS FOR TREATING AND/OR PREVENTING A VIRAL INFECTION” (priority 2022, published 2025).
Structures can show the parent of a compound that is named as a salt. Where two headings read alike, the source gives them in different places.

Experiments:
[1] = Pharmacokinetics in plasma; assay type: in vivo
Vero-E6 cells = conditions: 20 hours post infection
[2] = Solubility of Apilimod and Nafamostat in different vehicles (visible precipitate); assay type: physicochemical; conditions: for precipitate in solution: 1 mg/ml Apilimod di-mesylate, 2 mg/ml Nafamostat mesylate, 12 hours at room temperature, also seen after centrifugation; for solubility in deionized water: mixed and dissolved in deionized (MilliQ) water; for solubility in solutions containing salt: phosphate buffer saline (PBS) or DMEM cell culture medium, particularly when together
From the text: FIGS. 1A-1B show the solubility of Apilimod and Nafamostat in different vehicles. […] Magnified images of the boxed areas are shown on the right panels.
This is the reason why our drug mixtures were made in deionized (MilliQ) water as stocks and for intranasal administration. While the mouse nose tolerates exposure to deionized (MilliQ) water, for humans it may be necessary to adjust the osmolarity of the solution, for example by adding sucrose.

[3] = test system: A549-ACE2-TMPRSS2GFP cells; conditions: 20 hours post infection

N-[(E)-(3-methylphenyl)methylidencamino]-6-morpholin-4-yl-2-(2-pyridin-2-ylethoxy)pyrimidin-4-amine [Apilimod dimesylate]
half-life in plasma [1]: relatively short half-life times (minutes) | number of cells, normalized to vehicle-treated infected cells (Vero-E6 cells; drug stock prepared in DMEM): Significant loss of cells | number of cells, normalized to vehicle-treated infected cells (Vero-E6 cells; drug stock prepared in PBS): Significant loss of cells | precipitate in solution ([2]; in DMEM): a precipitate is observable | precipitate in solution ([2]; in PBS): a precipitate is observable | solubility in deionized water [2]: substantially increased | solubility in solutions containing salt [2]: relatively insoluble and precipitate

N=C(N)c1ccc2cc(OC(=O)c3ccc(N=C(N)N)cc3)ccc2c1 [Nafamostat mesylate]
half-life in plasma [1]: relatively short half-life times (minutes) | precipitate in solution ([2]; in DMEM): a precipitate is observable | precipitate in solution ([2]; in PBS): a precipitate is observable | solubility in deionized water [2]: substantially increased | solubility in solutions containing salt [2]: relatively insoluble and precipitate | number of cells, normalized to vehicle-treated infected cells ([3]; drug stock prepared in DMEM): Significant loss of cells | number of cells, normalized to vehicle-treated infected cells ([3]; drug stock prepared in PBS): Significant loss of cells
